Laboratory results reported in article PMC10955584, “New Benzimidazole-Triazole Derivatives as Topoisomerase I Inhibitors: Design, Synthesis, Anticancer Screening, and Molecular Modeling Studies” (ACS Omega, 2024).
Where two headings read alike, the source gives them in different places.

Tests used:
[1] = tested on: A549 (lung carcinoma cell line); test: MTT cell viability assay, A549; format: cell-based; conditions: Homo sapiens
Protocol: (§1) The anticancer activity of compounds 4a–l were screened according to the MTT assays. The MTT assays were performed as previously described.[3] Anticancer activity of final compounds was assessed against […] A549 (lung carcinoma cell line) and C6 (rat glioma cell line) cell lines.

[2] = tested on: C6 (rat glioma cell line); test: MTT cell viability assay, C6; format: cell-based
Protocol: as §1

[3] = tested on: NIH3T3 (mouse embryo fibroblast cell line); test: MTT cell viability assay, NIH3T3 healthy cells; format: cell-based
DNA topoisomerase I = target: T1, DNA topoisomerase I (Homo sapiens, UniProt P11387); test: DNA topoisomerase I assay (TopoGen kit, relaxation of supercoiled plasmid DNA, agarose gel); format: biochemical; conditions: supercoiled plasmid DNA pHOT 1, 30 min at 37 °C
T1 construct: purchased TopoGen TG1018–2
T1 sequence (P11387 1-765): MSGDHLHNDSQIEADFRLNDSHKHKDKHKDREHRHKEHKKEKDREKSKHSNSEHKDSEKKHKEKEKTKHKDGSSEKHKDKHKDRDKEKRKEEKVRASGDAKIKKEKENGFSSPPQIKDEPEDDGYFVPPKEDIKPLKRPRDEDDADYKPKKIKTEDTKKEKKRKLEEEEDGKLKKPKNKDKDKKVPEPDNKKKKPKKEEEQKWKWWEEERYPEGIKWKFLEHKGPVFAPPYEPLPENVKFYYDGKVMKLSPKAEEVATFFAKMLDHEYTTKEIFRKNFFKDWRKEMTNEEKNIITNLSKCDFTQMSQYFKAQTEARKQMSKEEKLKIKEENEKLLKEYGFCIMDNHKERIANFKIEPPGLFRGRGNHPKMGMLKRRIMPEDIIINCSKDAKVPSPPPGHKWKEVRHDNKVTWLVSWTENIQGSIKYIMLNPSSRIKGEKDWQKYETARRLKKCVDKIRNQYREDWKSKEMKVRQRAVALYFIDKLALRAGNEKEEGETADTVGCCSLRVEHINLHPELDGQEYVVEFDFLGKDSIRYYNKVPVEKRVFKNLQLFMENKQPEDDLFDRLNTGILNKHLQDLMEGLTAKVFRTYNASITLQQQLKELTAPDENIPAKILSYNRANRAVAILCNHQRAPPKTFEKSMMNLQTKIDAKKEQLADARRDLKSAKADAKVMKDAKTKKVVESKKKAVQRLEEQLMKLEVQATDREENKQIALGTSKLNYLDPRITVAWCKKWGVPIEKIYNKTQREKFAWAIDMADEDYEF
Protocol: Topogen’s Topoisomerase I Drug Screening Kit was used to investigate the topoisomerase I effects of the compounds. With this kit, it is determined whether the compounds that inhibit Topo I activity act as catalytic inhibitors or topoisomerase poisons. Topoisomerase I inhibition activities of compounds 4b, 4h, Hoechst 33342, and camptothecin were evaluated in vitro and the analysis of the reaction products was visualized by the electrophoresis method. Supercoiled plasmid DNA (pHOT 1) was used as the control group. As another control group, plasmid DNA and topoisomerase I were used to ensure that the DNA became relaxed. Hoechst 33342, known as a topoisomerase poison, and camptothecin were used as positive controls.
Using agarose gel electrophoresis, the topoisomerase I inhibitory activities of the final compounds were assessed by measuring the relaxation of supercoiled plasmid DNA. A positive control, camptothecin, was used. A final volume of 20 μL reaction volume was used for the experiment, which contained 2 μL of 10× TGS buffer, […], 2 μL of supercoiled plasmid DNA, 2 μL of the test compound, 2 μL of Topo I, 2 μl of 10% SDS, 2 μL of proteinase K, and 2 μL of the DNA loading dye. Following a 30 min incubation period at 37 °C, the reaction mixtures were electrophoresed using 1× TAE buffer for 75 min at a potential of 50 V on a 1% agarose gel.[25]

Topo II = tested on: Topo II; design: method as in PMID 35870412; conditions: read-out: IC50 Topo II enzyme inhibition; cited from earlier work

Row | SMILES | IC50 [1] | IC50 [2] | IC50 [3] | melting point | Topoisomerase I inhibitory effect (gel electrophoresis) (DNA topoisomerase I) | IC50 ([3]; NIH3T3, heading: IC50 NIH3T3) | IC50 (Topo II)
1 | CCOc1ccc(-c2nc3ccc(-c4nnc(SCC(=O)N5CCN(c6ccccc6)CC5)n4CC)cc3[nH]2)cc1 [4j, 2-((4-Ethyl-5-(2-(4-ethoxyphenyl)-1H-benzo[d]imidazol-6-yl)-4H-1,2,4-triazol-3-yl)thio)-1-(4-phenylpiperazin-1-yl)ethanone] | 54.1 ± 2.18 µM | > 100 µM | 69.5 ± 2.85 µM | 118.8 °C |  |  | 
2 | CCOc1ccc(-c2nc3ccc(-c4nnc(SCC(=O)N5CCN(c6ccccn6)CC5)n4CC)cc3[nH]2)cc1 [4k, 2-((4-Ethyl-5-(2-(4-ethoxyphenyl)-1H-benzo[d]imidazol-6-yl)-4H-1,2,4-triazol-3-yl)thio)-1-(4-(2-pyridinyl)piperazin-1-yl)ethanone] | 24.9 ± 1.21 µM | 64.6 ± 2.66 µM | 46.4 ± 1.21 µM | 162.2 °C |  |  | 
3 | CCOc1ccc(-c2nc3ccc(-c4nc5cc(N6CCN(C)CC6)ccc5[nH]4)cc3[nH]2)cc1 [Hoechst 33342, reference compound] | 0.422 ± 0.02 µM | 1.05 ± 0.3 µM | 13 ± 0.598 µM |  | strong inhibitory effect as a topoisomerase poison |  | 
4 | COc1cccc2c1C(=O)c1c(O)c3c(c(O)c1C2=O)C[C@@](O)(C(=O)CO)C[C@@H]3O[C@H]1C[C@H](N)[C@H](O)[C@H](C)O1 [doxorubicin, reference compound] |  |  |  |  |  | 1.06 ± 0.00917 µM | 
5 | CCn1c(SCC(=O)N2CCN(c3ccccc3)CC2)nnc1-c1ccc2nc(-c3ccc(OC)cc3)[nH]c2c1 [4f, 2-((4-Ethyl-5-(2-(4-methoxyphenyl)-1H-benzo[d]imidazol-6-yl)-4H-1,2,4-triazol-3-yl)thio)-1-(4-phenylpiperazin-1-yl)ethanone] | 69.4 ± 3.04 µM | > 100 µM | 92.8 ± 3.06 µM | 153.8 °C |  |  | 
6 | CCn1c(SCC(=O)N2CCN(c3ccccc3)CC2)nnc1-c1ccc2nc(-c3ccc(O)cc3)[nH]c2c1 [4b, 2-((4-Ethyl-5-(2-(4-hydroxyphenyl)-1H-benzo[d]imidazol-6-yl)-4H-1,2,4-triazol-3-yl)thio)-1-(4-phenylpiperazin-1-yl)ethanone] | 7.34 ± 0.21 µM | 42.1 ± 2.1 µM | 56.7 ± 1.18 µM | 319 °C | significant inhibitory activity |  | 
7 | CN[C@@H]1C[C@H]2O[C@@](C)([C@@H]1OC)n1c3ccccc3c3c4c(c5c6ccccc6n2c5c31)C(=O)NC4 [staurosporine] |  |  |  |  |  |  | 4.64 µM
8 | CCOc1ccc(-c2nc3ccc(-c4nnc(SCC(=O)N5CCN(c6ncccn6)CC5)n4CC)cc3[nH]2)cc1 [4l, 2-((4-Ethyl-5-(2-(4-ethoxyphenyl)-1H-benzo[d]imidazol-6-yl)-4H-1,2,4-triazol-3-yl)thio)-1-(4-(2-pyrimidinyl)piperazin-1-yl)ethanone] | 12.4 ± 0.54 µM | 38.8 ± 1.82 µM | 35.7 ± 1.11 µM | 140.8 °C |  |  | 
9 | CCN1CCN(C(=O)CSc2nnc(-c3ccc4nc(-c5ccc(O)cc5)[nH]c4c3)n2CC)CC1 [4a, 2-((4-Ethyl-5-(2-(4-hydroxyphenyl)-1H-benzo[d]imidazol-6-yl)-4H-1,2,4-triazol-3-yl)thio)-1-(4-ethylpiperazin-1-yl)ethanone] | 21.8 ± 1.04 µM | > 100 µM | 64.8 ± 1.96 µM | 223.5 °C |  |  | 
10 | CCn1c(SCC(=O)N2CCN(c3ncccn3)CC2)nnc1-c1ccc2nc(-c3ccc(OC)cc3)[nH]c2c1 [4h, 2-((4-Ethyl-5-(2-(4-methoxyphenyl)-1H-benzo[d]imidazol-6-yl)-4H-1,2,4-triazol-3-yl)thio)-1-(4-(2-pyrimidinyl)piperazin-1-yl)ethanone] | 4.56 ± 0.18 µM | 13.2 ± 0.46 µM | 74.4 ± 2.68 µM | 190.5 °C | significant inhibitory activity |  | 
11 | CCOc1ccc(-c2nc3ccc(-c4nnc(SCC(=O)N5CCN(CC)CC5)n4CC)cc3[nH]2)cc1 [4i, 2-((4-Ethyl-5-(2-(4-ethoxyphenyl)-1H-benzo[d]imidazol-6-yl)-4H-1,2,4-triazol-3-yl)thio)-1-(4-ethylpiperazin-1-yl)ethanone] | 33 ± 1.42 µM | 39.4 ± 2.58 µM | 30.6 ± 1.08 µM | 144.3 °C |  |  | 
12 | CCn1c(SCC(=O)N2CCN(c3ncccn3)CC2)nnc1-c1ccc2nc(-c3ccc(O)cc3)[nH]c2c1 [4d, 2-((4-Ethyl-5-(2-(4-hydroxyphenyl)-1H-benzo[d]imidazol-6-yl)-4H-1,2,4-triazol-3-yl)thio)-1-(4-(2-pyrimidinyl)piperazin-1-yl)ethanone] | 54.4 ± 1.84 µM | > 100 µM | 80.5 ± 2.76 µM | 144 °C |  |  | 
13 | CCN1CCN(C(=O)CSc2nnc(-c3ccc4nc(-c5ccc(OC)cc5)[nH]c4c3)n2CC)CC1 [4e, 2-((4-Ethyl-5-(2-(4-methoxyphenyl)-1H-benzo[d]imidazol-6-yl)-4H-1,2,4-triazol-3-yl)thio)-1-(4-ethylpiperazin-1-yl)ethanone] | 75.7 ± 2.55 µM | > 100 µM | 77.7 ± 2.47 µM | 112.7 °C |  |  | 
14 | CCn1c(SCC(=O)N2CCN(c3ccccn3)CC2)nnc1-c1ccc2nc(-c3ccc(O)cc3)[nH]c2c1 [4c, 2-((4-Ethyl-5-(2-(4-hydroxyphenyl)-1H-benzo[d]imidazol-6-yl)-4H-1,2,4-triazol-3-yl)thio)-1-(4-(2-pyridinyl)piperazin-1-yl)ethanone] | 15.8 ± 0.63 µM | 24 ± 2.4 µM | 32.2 ± 0.74 µM | 312.4 °C |  |  | 
15 | CC[C@@]1(O)C(=O)OCc2c1cc1n(c2=O)Cc2cc3ccccc3nc2-1 [camptothecin, reference compound] |  |  |  |  | strong inhibitory effect as a topoisomerase poison |  | 
16 | CCn1c(SCC(=O)N2CCN(c3ccccn3)CC2)nnc1-c1ccc2nc(-c3ccc(OC)cc3)[nH]c2c1 [4g, 2-((4-Ethyl-5-(2-(4-methoxyphenyl)-1H-benzo[d]imidazol-6-yl)-4H-1,2,4-triazol-3-yl)thio)-1-(4-(2-pyridinyl)piperazin-1-yl)ethanone] | 87.2 ± 3.97 µM | > 100 µM | 85.9 ± 2.92 µM | 204.3 °C |  |  | 
